Each compound was assayed against Mitogen-activated protein kinase 14 (Homo sapiens, UniProt Q16539) (assay: Inhibition of p38alpha).
Sequence of Mitogen-activated protein kinase 14 (Q16539 whole entry): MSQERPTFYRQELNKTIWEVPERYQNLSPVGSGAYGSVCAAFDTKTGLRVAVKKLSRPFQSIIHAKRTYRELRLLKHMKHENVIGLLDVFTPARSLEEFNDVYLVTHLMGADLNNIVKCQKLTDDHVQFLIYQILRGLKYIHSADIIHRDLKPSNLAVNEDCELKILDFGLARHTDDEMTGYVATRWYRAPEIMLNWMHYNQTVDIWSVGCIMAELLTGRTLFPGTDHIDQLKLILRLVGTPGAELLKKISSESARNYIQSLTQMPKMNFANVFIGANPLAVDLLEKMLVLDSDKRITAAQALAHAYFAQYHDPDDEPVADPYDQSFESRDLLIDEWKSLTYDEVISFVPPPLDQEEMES
`CSc1nc(-c2cccc(C(F)(F)F)c2)c(-c2ccnc(NCC(C)c3ccccc3)c2)[nH]1` (configuration not stated) gave an IC50 of 93 nM.
Compound `COCCn1c(SC)nc(-c2ccc(F)cc2)c1-c1ccnc(NC2CCCC[C@H]2O)c1` (some centres not stated) has an IC50 of 211 nM.
In the case of `COCCn1c(SC)nc(-c2ccc(F)cc2)c1-c1ccnc(NC2CCOCC2)c1`, the IC50 is reported as 38 nM.
Compound `CSc1nc(-c2cccc(C(F)(F)F)c2)c(-c2ccnc(NC3CCCc4ccccc43)c2)[nH]1` (configuration not stated) has an IC50 of 248 nM.
For `COCCn1c(SC)nc(-c2ccc(F)cc2)c1-c1ccnc(NCC(C)O)c1` (configuration not stated), the IC50 was 146 nM.
`CCSc1nc(-c2ccc(F)cc2)c(-c2ccnc(F)c2)[nH]1` was tested, and the IC50 was 213 nM.
In the case of `CSc1nc(-c2ccc(F)cc2)c(-c2ccnc(NCc3ccc(F)cc3)c2)[nH]1`, the IC50 is reported as 173 nM.
With `CSc1nc(-c2ccc(F)cc2)c(-c2ccnc(OCc3cccs3)c2)[nH]1` the IC50 was 424 nM.
With `CSc1nc(-c2ccc(F)cc2)c(-c2ccnc(NC(Cc3ccccc3)c3ccccc3)c2)[nH]1` (configuration not stated) the IC50 was 348 nM.
Compound `CSc1nc(-c2ccc(F)cc2)c(-c2ccnc(OC(C)c3ccccc3)c2)[nH]1` (configuration not stated) has an IC50 of 639 nM.
Work on `CSc1nc(-c2cccc(C(F)(F)F)c2)c(-c2ccnc(NC(C)CCc3ccccc3)c2)[nH]1` (configuration not stated) yielded an IC50 of 49 nM.
Work on `CSc1nc(-c2ccnc(OCC3CCCO3)c2)c(-c2ccc(F)cc2)[nH]1` (configuration not stated) yielded an IC50 of 542 nM.
Compound `CCSc1nc(-c2ccc(F)cc2)c(-c2ccnc(Cl)c2)[nH]1` has an IC50 of 372 nM.
`CSc1nc(-c2ccc(F)cc2)c(-c2ccnc(NCCO)c2)[nH]1` gave an IC50 of 45 nM.
Work on `CSc1nc(-c2ccc(F)cc2)c(-c2ccnc(NCC(C)c3ccccc3)c2)[nH]1` (configuration not stated) yielded an IC50 of 17 nM.
`CSc1nc(-c2ccc(F)cc2)c(-c2ccnc(NC(C)CC(C)C)c2)[nH]1` (configuration not stated) showed an IC50 of 26 nM.
With `CSc1nc(-c2ccc(F)cc2)c(-c2ccnc(NC(Cc3ccccc3)Cc3ccccc3)c2)[nH]1` the IC50 was 2150 nM.
`CSc1nc(-c2ccc(F)cc2)c(-c2ccnc(NC(C)CO)c2)[nH]1` (configuration not stated) showed an IC50 of 6 nM.
`Fc1ccc(-c2nc(SCc3ccccc3)[nH]c2-c2ccnc(F)c2)cc1` gave an IC50 of 258 nM.
`CSc1nc(-c2ccc(F)cc2)c(-c2ccnc(NCCc3cc(C)ccc3C)c2)[nH]1` gave an IC50 of 82 nM.
`CSc1nc(-c2ccc(F)cc2)c(-c2ccnc(N[C@H](C)C3CCCCC3)c2)[nH]1` gave an IC50 of 9 nM.
For `CSc1nc(-c2ccc(F)cc2)c(-c2ccnc(NC3CCCCC3C)c2)[nH]1` (mixture of isomers), the IC50 was 13 nM.
Work on `CSc1nc(-c2ccnc(NC3CCCc4ccccc43)c2)c(-c2ccc(F)cc2)[nH]1` (configuration not stated) yielded an IC50 of 47 nM.
With `CSc1nc(-c2cccc(C(F)(F)F)c2)c(-c2ccnc(N[C@H]3CC[C@H](O)CC3)c2)[nH]1` the IC50 was 11 nM.
With `CSc1nc(-c2cccc(C(F)(F)F)c2)c(-c2ccnc(NCCCO)c2)[nH]1` the IC50 was 61 nM.
Work on `CSc1nc(-c2ccc(F)cc2)c(-c2ccnc(NCc3ccc(C)o3)c2)[nH]1` yielded an IC50 of 113 nM.
With `CSc1nc(-c2ccc(F)cc2)c(-c2ccnc(N[C@@H](C)C3CCCCC3)c2)[nH]1` the IC50 was 153 nM.
`CSc1nc(-c2ccc(F)cc2)c(-c2ccnc(Cl)c2)[nH]1` showed an IC50 of 1040 nM.
`COCCn1c(SC)nc(-c2ccc(F)cc2)c1-c1ccnc(NC(C)CO)c1` (configuration not stated) showed an IC50 of 292 nM.
`CSc1nc(-c2cccc(C(F)(F)F)c2)c(-c2ccnc(NCc3ccco3)c2)[nH]1` gave an IC50 of 191 nM.
`CSc1nc(-c2cccc(C(F)(F)F)c2)c(-c2ccnc(F)c2)[nH]1` showed an IC50 of 1090 nM.
`CSc1nc(-c2ccc(F)cc2)c(-c2ccnc(N[C@H]3CC[C@@H](C)CC3)c2)[nH]1` was tested, and the IC50 was 31 nM.
Compound `CSc1nc(-c2cccc(C(F)(F)F)c2)c(-c2ccnc(NC(C)c3ccccc3)c2)[nH]1` (configuration not stated) has an IC50 of 199 nM.

What follows are compounds tested against T1, CYP1A2 (Homo sapiens, UniProt P05177) (assay: Inhibition of CYP1A2 at 10 uM).
T1 sequence (P05177 whole entry): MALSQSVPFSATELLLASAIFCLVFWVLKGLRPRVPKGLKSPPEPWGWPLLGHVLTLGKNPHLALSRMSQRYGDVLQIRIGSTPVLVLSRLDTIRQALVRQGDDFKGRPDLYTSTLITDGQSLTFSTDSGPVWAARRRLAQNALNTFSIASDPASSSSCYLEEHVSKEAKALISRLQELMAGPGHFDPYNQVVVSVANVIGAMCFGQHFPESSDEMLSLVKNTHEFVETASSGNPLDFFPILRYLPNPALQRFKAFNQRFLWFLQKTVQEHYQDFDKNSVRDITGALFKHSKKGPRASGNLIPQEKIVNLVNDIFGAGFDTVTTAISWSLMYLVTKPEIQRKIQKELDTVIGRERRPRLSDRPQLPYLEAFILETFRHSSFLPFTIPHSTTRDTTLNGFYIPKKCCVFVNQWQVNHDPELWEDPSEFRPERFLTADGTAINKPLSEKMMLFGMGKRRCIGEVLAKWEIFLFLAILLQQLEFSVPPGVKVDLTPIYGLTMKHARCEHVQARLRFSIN
Type: ADME
For `C[S+]([O-])c1ccc(-c2nc(-c3ccncc3)c(-c3ccc(F)cc3)[nH]2)cc1` (configuration not stated) [SB-203580], the inhibition at 10 µM was 38%.

What follows are compounds tested against CYP2C9 (Homo sapiens, UniProt P11712) (assay: Inhibition of CYP2C9 at 10 uM).
Sequence of CYP2C9 (P11712 whole entry): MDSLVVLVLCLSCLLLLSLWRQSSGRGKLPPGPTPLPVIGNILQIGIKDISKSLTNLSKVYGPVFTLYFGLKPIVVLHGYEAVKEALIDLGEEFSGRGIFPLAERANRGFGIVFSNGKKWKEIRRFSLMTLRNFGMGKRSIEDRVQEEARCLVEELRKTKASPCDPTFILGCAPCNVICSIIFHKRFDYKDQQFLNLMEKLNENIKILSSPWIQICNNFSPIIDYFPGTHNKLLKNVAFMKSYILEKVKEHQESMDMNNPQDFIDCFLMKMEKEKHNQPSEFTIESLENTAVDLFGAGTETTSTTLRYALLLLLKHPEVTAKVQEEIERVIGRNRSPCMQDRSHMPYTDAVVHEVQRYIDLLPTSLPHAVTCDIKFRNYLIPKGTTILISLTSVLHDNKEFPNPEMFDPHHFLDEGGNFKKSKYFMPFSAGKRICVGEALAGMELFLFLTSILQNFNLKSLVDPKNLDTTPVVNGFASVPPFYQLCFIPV
Type: ADME
`C[S+]([O-])c1ccc(-c2nc(-c3ccncc3)c(-c3ccc(F)cc3)[nH]2)cc1` (configuration not stated) [SB-203580] gave an inhibition at 10 µM of 87%.

The compounds below were run on Blood (assay: Inhibition of IL1-beta release in human whole blood).
Type: functional, tissue-based
Compound `CSc1nc(-c2cccc(C(F)(F)F)c2)c(-c2ccnc(NC3CCCc4ccccc43)c2)[nH]1` (configuration not stated) has an IC50 of 10.3 µM.
With `CSc1nc(-c2cccc(C(F)(F)F)c2)c(-c2ccnc(NC(C)CCc3ccccc3)c2)[nH]1` (configuration not stated) the IC50 was 1.29 µM.
`CSc1nc(-c2ccc(F)cc2)c(-c2ccnc(NCC(C)c3ccccc3)c2)[nH]1` (configuration not stated) showed an IC50 of 10.1 µM.
`CSc1nc(-c2ccc(F)cc2)c(-c2ccnc(NCCc3cc(C)ccc3C)c2)[nH]1` showed an IC50 of 59.3 µM.
Work on `CSc1nc(-c2ccc(F)cc2)c(-c2ccnc(NC3CCCCC3C)c2)[nH]1` (mixture of isomers) yielded an IC50 of 0.136 µM.
`CSc1nc(-c2ccnc(NC3CCCc4ccccc43)c2)c(-c2ccc(F)cc2)[nH]1` (configuration not stated) gave an IC50 of 16.2 µM.
`CSc1nc(-c2ccc(F)cc2)c(-c2ccncc2)n1C` showed an IC50 of 0.08 µM.

These compounds were tested on Blood (assay: Inhibition of TNFalpha release in human whole blood).
Type: functional, tissue-based
`CSc1nc(-c2cccc(C(F)(F)F)c2)c(-c2ccnc(NCC(C)c3ccccc3)c2)[nH]1` (configuration not stated) showed an IC50 of 23 µM.
For `COCCn1c(SC)nc(-c2ccc(F)cc2)c1-c1ccnc(NC2CCOCC2)c1`, the IC50 was 5.88 µM.
`CSc1nc(-c2cccc(C(F)(F)F)c2)c(-c2ccnc(NC3CCCc4ccccc43)c2)[nH]1` (configuration not stated) gave an IC50 of 21.2 µM.
Compound `COCCn1c(SC)nc(-c2ccc(F)cc2)c1-c1ccnc(NCC(C)O)c1` (configuration not stated) has an IC50 of 6.38 µM.
`CSc1nc(-c2ccc(F)cc2)c(-c2ccnc(NCc3ccc(F)cc3)c2)[nH]1` was tested, and the IC50 was 22.2 µM.
`CSc1nc(-c2ccc(F)cc2)c(-c2ccnc(OCc3cccs3)c2)[nH]1` gave an IC50 of 38.4 µM.
`CSc1nc(-c2ccc(F)cc2)c(-c2ccnc(NC(Cc3ccccc3)c3ccccc3)c2)[nH]1` (configuration not stated) was tested, and the IC50 was 43.5 µM.
Compound `CSc1nc(-c2ccc(F)cc2)c(-c2ccnc(OC(C)c3ccccc3)c2)[nH]1` (configuration not stated) has an IC50 of 44.3 µM.
Compound `CSc1nc(-c2cccc(C(F)(F)F)c2)c(-c2ccnc(NC(C)CCc3ccccc3)c2)[nH]1` (configuration not stated) has an IC50 of 4.64 µM.
Work on `CSc1nc(-c2ccnc(OCC3CCCO3)c2)c(-c2ccc(F)cc2)[nH]1` (configuration not stated) yielded an IC50 of 11.2 µM.
`CCSc1nc(-c2ccc(F)cc2)c(-c2ccnc(Cl)c2)[nH]1` gave an IC50 of 36 µM.
`CSc1nc(-c2ccc(F)cc2)c(-c2ccnc(NCCO)c2)[nH]1` was tested, and the IC50 was 2.04 µM.
`CSc1nc(-c2ccc(F)cc2)c(-c2ccnc(NCC(C)c3ccccc3)c2)[nH]1` (configuration not stated) gave an IC50 of 3.93 µM.
In the case of `CSc1nc(-c2ccc(F)cc2)c(-c2ccnc(NC(C)CC(C)C)c2)[nH]1` (configuration not stated), the IC50 is reported as 0.7 µM.
`CSc1nc(-c2ccc(F)cc2)c(-c2ccnc(NC(Cc3ccccc3)Cc3ccccc3)c2)[nH]1` gave an IC50 of 43.6 µM.
`CSc1nc(-c2ccc(F)cc2)c(-c2ccnc(NC(C)CO)c2)[nH]1` (configuration not stated) was tested, and the IC50 was 0.439 µM.
With `CSc1nc(-c2ccc(F)cc2)c(-c2ccnc(NCCc3cc(C)ccc3C)c2)[nH]1` the IC50 was 51.5 µM.
Work on `CSc1nc(-c2ccc(F)cc2)c(-c2ccnc(N[C@H](C)C3CCCCC3)c2)[nH]1` yielded an IC50 of 3.3 µM.
`CSc1nc(-c2ccc(F)cc2)c(-c2ccnc(NC3CCCCC3C)c2)[nH]1` (mixture of isomers) gave an IC50 of 0.458 µM.
In the case of `CSc1nc(-c2ccnc(NC3CCCc4ccccc43)c2)c(-c2ccc(F)cc2)[nH]1` (configuration not stated), the IC50 is reported as 2.81 µM.
`CSc1nc(-c2cccc(C(F)(F)F)c2)c(-c2ccnc(N[C@H]3CC[C@H](O)CC3)c2)[nH]1` was tested, and the IC50 was 1.68 µM.
`CSc1nc(-c2ccc(F)cc2)c(-c2ccncc2)n1C` gave an IC50 of 5.1 µM.
`CSc1nc(-c2cccc(C(F)(F)F)c2)c(-c2ccnc(NCCCO)c2)[nH]1` gave an IC50 of 5.19 µM.
`CSc1nc(-c2ccc(F)cc2)c(-c2ccnc(NCc3ccc(C)o3)c2)[nH]1` showed an IC50 of 7.43 µM.
With `CSc1nc(-c2ccc(F)cc2)c(-c2ccnc(N[C@@H](C)C3CCCCC3)c2)[nH]1` the IC50 was 27.6 µM.
For `COCCn1c(SC)nc(-c2ccc(F)cc2)c1-c1ccnc(NC(C)CO)c1` (configuration not stated), the IC50 was 17.4 µM.
With `CSc1nc(-c2cccc(C(F)(F)F)c2)c(-c2ccnc(NCc3ccco3)c2)[nH]1` the IC50 was 14.8 µM.
In the case of `CSc1nc(-c2cccc(C(F)(F)F)c2)c(-c2ccnc(F)c2)[nH]1`, the IC50 is reported as 44.2 µM.
`CSc1nc(-c2ccc(F)cc2)c(-c2ccnc(N[C@H]3CC[C@@H](C)CC3)c2)[nH]1` showed an IC50 of 3.68 µM.
In the case of `CSc1nc(-c2cccc(C(F)(F)F)c2)c(-c2ccnc(NC(C)c3ccccc3)c2)[nH]1` (configuration not stated), the IC50 is reported as 12.2 µM.
